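Cells were grown in 96-well plates and exposed to each compound for 48 hours at five concentrations; endpoints were interpolated linearly between bracketing concentrations, or set to the highest concentration if not reached. TGI is the concentration that stops growth completely.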
Experiments:
Assay in all cases: NCI-60 cell line screen, 48 h
786-0 renal = system: 786-0 renal
A549 NSCLC = system: A549 NSCLC
ACHN renal = system: ACHN renal
CAKI-1 renal = system: CAKI-1 renal
CCRF-CEM leukemia = system: CCRF-CEM leukemia
COLO 205 colon = system: COLO 205 colon
DLD-1 colon = system: DLD-1 colon
DMS 114 small cell lung = system: DMS 114 small cell lung
DMS 273 small cell lung = system: DMS 273 small cell lung
EKVX NSCLC = system: EKVX NSCLC
HCC-2998 colon = system: HCC-2998 colon
HCT-116 colon = system: HCT-116 colon
HCT-15 colon = system: HCT-15 colon
HL-60(TB) leukemia = system: HL-60(TB) leukemia
HOP-18 NSCLC = system: HOP-18 NSCLC
HOP-62 NSCLC = system: HOP-62 NSCLC
HT29 colon = system: HT29 colon
K-562 leukemia = system: K-562 leukemia
KM12 colon = system: KM12 colon
LOX IMVI melanoma = system: LOX IMVI melanoma
M14 melanoma = system: M14 melanoma
M19-MEL melanoma = system: M19-MEL melanoma
MALME-3M melanoma = system: MALME-3M melanoma
MOLT-4 leukemia = system: MOLT-4 leukemia
NCI-H226 lung = system: NCI-H226 lung
NCI-H23 lung = system: NCI-H23 lung
NCI-H460 lung = system: NCI-H460 lung
NCI-H522 lung = system: NCI-H522 lung
OVCAR-3 ovarian = system: OVCAR-3 ovarian
OVCAR-4 ovarian = system: OVCAR-4 ovarian
OVCAR-5 ovarian = system: OVCAR-5 ovarian
OVCAR-8 ovarian = system: OVCAR-8 ovarian
RPMI-8226 leukemia = system: RPMI-8226 leukemia
SF-268 CNS = system: SF-268 CNS
SF-295 CNS = system: SF-295 CNS
SF-539 CNS = system: SF-539 CNS
SK-MEL-2 melanoma = system: SK-MEL-2 melanoma
SK-MEL-28 melanoma = system: SK-MEL-28 melanoma
SK-MEL-5 melanoma = system: SK-MEL-5 melanoma
SN12C renal = system: SN12C renal
SNB-19 CNS = system: SNB-19 CNS
SNB-75 CNS = system: SNB-75 CNS
SNB-78 CNS = system: SNB-78 CNS
SR leukemia = system: SR leukemia
SW-620 colon = system: SW-620 colon
TK-10 renal = system: TK-10 renal
U251 CNS = system: U251 CNS
UACC-257 melanoma = system: UACC-257 melanoma
UO-31 renal = system: UO-31 renal
XF 498 CNS = system: XF 498 CNS
A498 renal = system: A498 renal
HOP-92 NSCLC = system: HOP-92 NSCLC
IGROV1 ovarian = system: IGROV1 ovarian
KM20L2 colon = system: KM20L2 colon
LXFL 529 NSCLC = system: LXFL 529 NSCLC
RXF 393 renal = system: RXF 393 renal
SK-OV-3 ovarian = system: SK-OV-3 ovarian
UACC-62 melanoma = system: UACC-62 melanoma
RXF-631 renal = system: RXF-631 renal

Measured: TGI

CC1=NN(C(=O)Cc2ccccc2)C(=O)/C1=C\c1cccc(O)c1
not listed: A498 renal | HOP-92 NSCLC | IGROV1 ovarian | KM20L2 colon | LXFL 529 NSCLC | RXF 393 renal | SK-OV-3 ovarian | UACC-62 melanoma | RXF-631 renal
> 100 µM: all other assays above

O=C(NNc1ccc([N+](=O)[O-])cc1)C1OC(CO)C(O)C1O (stereo not drawn)
71.3 µM: SW-620 colon
not listed: NCI-H522 lung | SR leukemia | RXF-631 renal
> 100 µM: all other assays above

C[Si](C)(C)[C@@]1([Se]c2ccccc2)CC[C@@H]1C(=O)c1ccccc1
53 µM: RPMI-8226 leukemia
75.1 µM: MOLT-4 leukemia
58.1 µM: NCI-H522 lung
37.4 µM: SK-MEL-5 melanoma
not listed: HL-60(TB) leukemia | HOP-18 NSCLC | SR leukemia | XF 498 CNS | HOP-92 NSCLC
> 100 µM: all other assays above

Cc1cc(Br)cc(C)c1NC(=O)C(=O)C(C(=O)c1ccc(Cl)c(Cl)c1)C1OC(=O)c2ccccc21 (stereo not drawn)
51.2 µM: DLD-1 colon
not listed: HOP-18 NSCLC | SK-MEL-28 melanoma | SK-MEL-5 melanoma | SNB-75 CNS | XF 498 CNS | HOP-92 NSCLC
> 100 µM: all other assays above
